Assay results as given in ChEMBL document CHEMBL1201862, “PubChem BioAssay data set” (2004).
One block for each compound: values may come before it. Activity calls are given as the source filed them.

Legend:
HEK293 = assay: EBV LMP1 TES2 canonical NF-kB signalling blockers – cell-based, HEK293, luciferase, cherry-pick, dose response (AID 588343); assay type: functional, Homo sapiens; settings: Homo sapiens, HEK293
Interleukin-8 [1] = biological target: T1, Interleukin-8 (Homo sapiens, UniProt P10145); assay: Dose Response confirmation of uHTS small molecule hits for cystic fibrosis induced NFkb Inhibitors in a TNFa-induced IL8 counterscreen.; assay type: functional; settings: read-out: IC50_Mean
T1 sequence (P10145 whole entry): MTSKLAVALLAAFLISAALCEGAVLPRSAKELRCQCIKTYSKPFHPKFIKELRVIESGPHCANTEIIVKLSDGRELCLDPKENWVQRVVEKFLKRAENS

Interleukin-8 [2] = biological target: T1, Interleukin-8; assay: Dose Response confirmation of uHTS small molecule hits for cystic fibrosis induced NFkb Inhibitors in a PAF-induced IL8 counterscreen.; assay type: functional; settings: read-out: IC50_Mean
Cytochrome P450 2D6 = Cytochrome P450 2D6 (Homo sapiens, UniProt P10635);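 further: CYP2D6 member of a cytochrome P450 panel assay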
Chain of Cytochrome P450 2D6 (P10635 whole entry): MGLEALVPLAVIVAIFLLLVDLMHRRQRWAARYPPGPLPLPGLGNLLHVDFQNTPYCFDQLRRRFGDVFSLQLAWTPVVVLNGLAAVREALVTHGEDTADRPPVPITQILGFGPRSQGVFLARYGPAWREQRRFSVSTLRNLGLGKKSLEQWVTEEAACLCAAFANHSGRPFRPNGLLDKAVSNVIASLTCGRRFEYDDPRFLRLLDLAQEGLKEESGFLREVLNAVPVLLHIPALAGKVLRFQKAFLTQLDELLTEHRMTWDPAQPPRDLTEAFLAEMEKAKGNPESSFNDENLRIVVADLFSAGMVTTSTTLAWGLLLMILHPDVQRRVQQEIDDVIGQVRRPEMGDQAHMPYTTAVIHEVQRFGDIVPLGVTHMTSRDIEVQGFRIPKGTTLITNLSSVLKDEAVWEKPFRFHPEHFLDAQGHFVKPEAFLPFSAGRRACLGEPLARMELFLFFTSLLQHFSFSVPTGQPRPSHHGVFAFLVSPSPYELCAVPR

[3] = biological target: T2, Corticotropin-releasing factor receptor 2/Corticotropin-releasing factor-binding protein (Homo sapiens, UniProt P24387+Q13324); assay: activators of CRF receptor 2 with binding protein – uHTS hits, confirmation (AID 602473); assay type: functional; settings: read-out: EC50_Mean
T2 sequence (Q13324 whole entry): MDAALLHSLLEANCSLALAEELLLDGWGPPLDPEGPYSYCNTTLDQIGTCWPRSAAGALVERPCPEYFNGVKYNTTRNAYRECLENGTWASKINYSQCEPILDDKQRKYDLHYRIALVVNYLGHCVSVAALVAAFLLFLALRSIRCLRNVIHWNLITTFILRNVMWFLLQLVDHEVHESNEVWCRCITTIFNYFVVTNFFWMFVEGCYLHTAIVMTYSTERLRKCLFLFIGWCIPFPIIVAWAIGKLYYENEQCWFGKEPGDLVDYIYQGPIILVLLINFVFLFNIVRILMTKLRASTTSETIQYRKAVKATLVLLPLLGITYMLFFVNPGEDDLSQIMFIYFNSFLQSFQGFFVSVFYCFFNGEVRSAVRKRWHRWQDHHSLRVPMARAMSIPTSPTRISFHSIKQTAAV
T2 sequence (P24387 whole entry): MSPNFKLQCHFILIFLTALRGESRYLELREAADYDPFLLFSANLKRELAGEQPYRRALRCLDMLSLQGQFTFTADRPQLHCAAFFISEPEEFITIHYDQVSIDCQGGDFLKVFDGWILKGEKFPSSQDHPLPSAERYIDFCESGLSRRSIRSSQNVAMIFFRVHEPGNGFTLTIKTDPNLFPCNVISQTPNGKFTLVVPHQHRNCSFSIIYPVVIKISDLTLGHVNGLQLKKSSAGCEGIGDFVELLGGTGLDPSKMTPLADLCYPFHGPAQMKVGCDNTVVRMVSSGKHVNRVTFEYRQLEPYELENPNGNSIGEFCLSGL

Kallikrein-7 = Kallikrein-7 (Homo sapiens, UniProt P49862); assay: Fluorescence Intensity-based biochemical primary high throughput dose response assay to identify activators of kallikrein-7 (K7) zymogen.
Chain of Kallikrein-7 (P49862 whole entry): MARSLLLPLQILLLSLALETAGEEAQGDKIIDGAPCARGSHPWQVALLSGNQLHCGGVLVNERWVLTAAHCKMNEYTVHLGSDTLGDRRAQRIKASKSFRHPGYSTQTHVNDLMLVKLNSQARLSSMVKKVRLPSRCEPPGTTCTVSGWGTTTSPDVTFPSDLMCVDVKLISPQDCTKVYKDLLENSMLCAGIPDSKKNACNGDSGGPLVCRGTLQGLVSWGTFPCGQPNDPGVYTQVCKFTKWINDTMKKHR

Beta-galactosidase = Beta-galactosidase (Escherichia coli, UniProt Q8VNN2); assay: Dose response counterscreen for EBI2 assay utilizing the enzyme, b-galactosidase.; assay type: functional
Chain of Beta-galactosidase (Q8VNN2 whole entry): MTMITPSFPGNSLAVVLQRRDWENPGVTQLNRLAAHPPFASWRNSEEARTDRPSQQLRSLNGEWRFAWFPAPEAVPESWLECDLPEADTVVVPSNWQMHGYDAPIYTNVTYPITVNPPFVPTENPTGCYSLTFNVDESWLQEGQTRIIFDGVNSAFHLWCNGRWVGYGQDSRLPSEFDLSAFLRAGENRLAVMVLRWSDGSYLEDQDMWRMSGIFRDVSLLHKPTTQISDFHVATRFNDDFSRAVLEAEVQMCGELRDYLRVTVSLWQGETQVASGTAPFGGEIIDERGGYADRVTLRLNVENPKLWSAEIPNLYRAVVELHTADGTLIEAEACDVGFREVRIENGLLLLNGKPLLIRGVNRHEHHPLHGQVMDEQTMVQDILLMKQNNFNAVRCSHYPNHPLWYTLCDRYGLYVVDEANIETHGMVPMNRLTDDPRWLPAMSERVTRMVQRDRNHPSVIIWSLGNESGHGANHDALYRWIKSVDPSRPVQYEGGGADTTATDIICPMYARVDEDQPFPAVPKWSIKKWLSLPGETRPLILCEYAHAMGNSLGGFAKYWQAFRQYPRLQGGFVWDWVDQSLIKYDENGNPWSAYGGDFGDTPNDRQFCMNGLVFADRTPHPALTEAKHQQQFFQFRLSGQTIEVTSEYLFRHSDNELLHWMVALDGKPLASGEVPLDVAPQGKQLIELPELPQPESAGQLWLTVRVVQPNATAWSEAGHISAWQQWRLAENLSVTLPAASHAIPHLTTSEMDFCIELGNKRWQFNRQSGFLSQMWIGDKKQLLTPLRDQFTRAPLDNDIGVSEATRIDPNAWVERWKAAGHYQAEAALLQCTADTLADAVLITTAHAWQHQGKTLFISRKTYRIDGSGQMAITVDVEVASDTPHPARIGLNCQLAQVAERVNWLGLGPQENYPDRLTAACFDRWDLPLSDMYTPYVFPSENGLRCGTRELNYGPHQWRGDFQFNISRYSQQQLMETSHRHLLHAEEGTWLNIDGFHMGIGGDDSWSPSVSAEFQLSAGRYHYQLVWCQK

Galanin receptor type 3 = biological target: T3, Galanin receptor type 3 (Homo sapiens, UniProt O60755); assay: Fluorescence-based cell-based primary high throughput dose response assay to identify antagonists of the Galanin Receptor 3 (GalR3).; assay type: functional
T3 sequence (O60755 whole entry): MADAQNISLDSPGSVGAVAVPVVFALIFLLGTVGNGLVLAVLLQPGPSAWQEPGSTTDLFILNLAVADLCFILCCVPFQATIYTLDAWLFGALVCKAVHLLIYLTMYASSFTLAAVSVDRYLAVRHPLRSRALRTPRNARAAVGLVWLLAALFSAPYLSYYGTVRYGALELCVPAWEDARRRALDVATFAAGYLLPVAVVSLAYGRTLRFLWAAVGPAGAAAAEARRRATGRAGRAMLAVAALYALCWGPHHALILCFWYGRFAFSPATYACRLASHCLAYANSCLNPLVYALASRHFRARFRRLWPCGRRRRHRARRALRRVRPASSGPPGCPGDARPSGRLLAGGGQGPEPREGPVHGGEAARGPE

cells = assay type: functional, cell-based; settings: HEK-CNG
[4] = viability loss in HeLa cells – cytotoxicity control for MgcRacGAP inhibitor project, dose response (AID 624300); assay type: functional
[5] = viability of uninfected HEp-2 cells – cell-based, HTS, cytotoxicity control for RSV inhibitor project, dose response (AID 2410); assay type: functional; settings: human respiratory syncytial virus
[6] = biological target: FAD-linked sulfhydryl oxidase ALR (Homo sapiens, UniProt P55789); assay: ALR-catalysed DTT oxidation blockers – biochemical, H2O2 detection, luminescence, cherry-pick, dose response (AID 493248)
Chain of FAD-linked sulfhydryl oxidase ALR (P55789 whole entry): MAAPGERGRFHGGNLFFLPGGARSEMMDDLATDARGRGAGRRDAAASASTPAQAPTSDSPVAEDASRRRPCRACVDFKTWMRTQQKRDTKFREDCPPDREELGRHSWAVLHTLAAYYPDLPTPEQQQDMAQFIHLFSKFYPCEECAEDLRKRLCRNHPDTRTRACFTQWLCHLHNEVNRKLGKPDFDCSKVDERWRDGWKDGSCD

[7] = biological target: T4, Methionyl-tRNA synthetase, putative (Trypanosoma brucei brucei, UniProt Q38C91); assay type: functional, Trypanosoma brucei brucei strain 927/4 GUTat10.1
T4 sequence (Q38C91 whole entry): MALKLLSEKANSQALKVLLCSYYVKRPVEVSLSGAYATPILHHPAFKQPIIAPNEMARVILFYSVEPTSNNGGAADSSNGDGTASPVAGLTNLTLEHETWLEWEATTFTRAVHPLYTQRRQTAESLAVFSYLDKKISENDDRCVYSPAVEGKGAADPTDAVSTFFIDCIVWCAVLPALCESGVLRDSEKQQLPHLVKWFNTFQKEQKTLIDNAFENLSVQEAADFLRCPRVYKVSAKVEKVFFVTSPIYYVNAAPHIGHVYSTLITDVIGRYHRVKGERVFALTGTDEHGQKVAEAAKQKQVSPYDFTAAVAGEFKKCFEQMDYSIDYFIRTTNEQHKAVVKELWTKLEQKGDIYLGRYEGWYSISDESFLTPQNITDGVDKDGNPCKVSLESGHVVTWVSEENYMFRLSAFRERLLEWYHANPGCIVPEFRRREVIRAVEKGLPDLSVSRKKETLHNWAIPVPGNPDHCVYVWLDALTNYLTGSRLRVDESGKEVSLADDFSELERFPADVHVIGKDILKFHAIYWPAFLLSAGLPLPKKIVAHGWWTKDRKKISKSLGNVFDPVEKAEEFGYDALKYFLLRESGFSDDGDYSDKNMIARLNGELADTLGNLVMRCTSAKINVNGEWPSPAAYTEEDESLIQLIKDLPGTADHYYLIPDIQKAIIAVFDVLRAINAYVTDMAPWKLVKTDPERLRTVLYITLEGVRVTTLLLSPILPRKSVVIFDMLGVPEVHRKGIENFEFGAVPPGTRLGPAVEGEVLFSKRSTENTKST

[8] = Counterscreen for inhibitors of Trypanosoma brucei methionyl tRNA synthetase (MetRS): Luminescence-based cell-based high throughput dose response assay to identify compounds that are cytotoxic to Jurkat human T lymphocyte cells.; assay type: functional
[9] = biological target: T4, Methionyl-tRNA synthetase, putative; assay type: functional, Trypanosoma brucei brucei strain 927/4 GUTat10.1; remark: listed apart in the source
[10] = biological target: T5, Rac GTPase-activating protein 1 (Homo sapiens, UniProt Q9H0H5); assay: blockers of MgcRacGAP-driven Rac1 GTP hydrolysis – biochemical, ADP Hunter fluorescence, primary and confirmatory, confirmation (AID 624330); assay type: functional
T5 sequence (Q9H0H5 whole entry): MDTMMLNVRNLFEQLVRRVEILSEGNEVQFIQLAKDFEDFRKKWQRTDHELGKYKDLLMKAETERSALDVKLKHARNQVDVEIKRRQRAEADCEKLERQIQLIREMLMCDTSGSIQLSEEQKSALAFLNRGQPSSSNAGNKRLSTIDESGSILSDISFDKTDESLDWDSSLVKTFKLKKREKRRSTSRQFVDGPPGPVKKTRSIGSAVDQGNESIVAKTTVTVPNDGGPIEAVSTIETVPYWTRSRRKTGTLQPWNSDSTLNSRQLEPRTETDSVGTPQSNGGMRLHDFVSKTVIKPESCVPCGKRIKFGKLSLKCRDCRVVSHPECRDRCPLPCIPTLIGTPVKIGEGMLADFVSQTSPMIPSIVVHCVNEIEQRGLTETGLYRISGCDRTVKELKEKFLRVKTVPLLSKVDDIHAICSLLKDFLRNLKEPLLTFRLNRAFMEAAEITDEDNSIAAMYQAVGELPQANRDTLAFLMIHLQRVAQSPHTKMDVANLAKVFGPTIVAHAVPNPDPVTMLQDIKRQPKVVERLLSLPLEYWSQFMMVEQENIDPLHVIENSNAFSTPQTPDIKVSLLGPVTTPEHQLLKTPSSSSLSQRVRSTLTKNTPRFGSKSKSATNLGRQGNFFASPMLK

Structure (SMILES): c1cncc(CNc2ncnc3ccc(-c4ccoc4)cc23)c1
AC50 (HEK293): 5.33 µM (active)
IC50 (Interleukin-8 [1]): > 79 µM (inactive)
IC50 (Interleukin-8 [2]): 6.44 µM (active)
AC50 (Cytochrome P450 2D6): 25.1 µM (inconclusive)

EC50 [3]: > 53 µM (inactive)
EC50 (Kallikrein-7): > 69.5 µM (inactive)
Structure (SMILES): CCN1CCSc2ccc(C(=O)NCc3ccccc3F)cc21

IC50 (Beta-galactosidase): > 80 µM (inactive)
Structure (SMILES): CN=C(S)N1N=C(c2ccc(C)cc2)CC1c1ccc(Br)cc1 (stereo not drawn)

Structure (SMILES): CCCCC[C@H](O)/C=C/[C@H]1CCC(=O)[C@@H]1CCCCCCC(=O)N1CCCCC1CO (stereo partly drawn)
IC50 (Galanin receptor type 3): 3.54 µM (active)
EC50 (cells): > 29.9 µM (inactive)

Structure (SMILES): CC(C)N(c1ccccc1)c1ccc(NC(S)=NCCN(C)C)cc1
CC50 [4]: 100 µM (active)

EC50 (Kallikrein-7): 6.34 µM (active)
Structure (SMILES): CCN(CC)c1ccc2c(C)c(CO)c(=O)oc2c1
CC50 [5]: > 50 µM (active)

Structure (SMILES): COc1cc(/C=N/Nc2nc3ccccc3[nH]2)ccc1O
AC50 [6]: 1.16 µM (active)
IC50 [7]: 23.7 µM (inactive)
IC50 [8]: 83.3 µM (inactive)
IC50 [9]: 102 µM (inactive)
CC50 [4]: 100 µM (active)
IC50 [10]: 14 µM (active)
